Measurements taken from ChEMBL document CHEMBL1759870, “Identification, structural properties and chelating capacity of miltipolone as a broad-spectrum inhibitor to cancer cells” (Eur J Med Chem, 2011).
pIC50: −log10 of the molar value.

Columns and labels:
HUVEC = assay: Antiproliferative activity against human HUVEC cells after 96 hrs by MTT assay; type: cell-based
HT-1080 = assay: Antiproliferative activity against human HT1080 cells after 96 hrs by MTT assay; type: functional, cell-based; details: HT-1080, 96 h

Row | SMILES | pIC50 (HUVEC) | pIC50 (HT-1080)
1 | CO[C@@H]1[C@H](OC(=O)NC(=O)CCl)CC[C@]2(CO2)[C@H]1[C@@]1(C)O[C@@H]1CC=C(C)C [O-CHLOROACETYLCARBAMOYLFUMAGILLOL] | 9.12 | 
2 | COc1cc([C@@H]2c3cc4c(cc3[C@@H](O[C@@H]3O[C@@H]5CO[C@@H](C)O[C@H]5[C@H](O)[C@H]3O)[C@H]3COC(=O)[C@H]23)OCO4)cc(OC)c1O [ETOPOSIDE] |  | 6.12
